Data on 1 molecule can be found in paper PMC11397024, “Strategic Fluorination to Achieve a Potent, Selective, Metabolically Stable, and Orally Bioavailable Inhibitor of CSNK2” (Molecules, 2024).

In series [1] the target is T1, CSNK2A1 (Homo sapiens, UniProt P68400).
T1 construct: expressed in transfected cells; host or cells: HEK293
Kind of series: NanoBRET assay CSNK2A1. The following applies: HEK293 cells, singlicate, read-out: CSNK2A1 pIC50 (converted). In kind it is cell-based. The method, then:
Assays were run using a modified version of the previously published protocols. […] A transfection complex of DNA (10 μg/mL) was generated consisting of 9 μg/mL carrier DNA (Promega, Madison, WI, USA) and 1 μg/mL CSNK2A-NLuc fusion DNA in Opti-MEM without serum (Gibco). FuGENE HD (Promega) was added at 30 μL/mL to form a lipid–DNA complex. The solution was then mixed and incubated at room temperature for 20 min. The transfection complex was mixed with a 20× volume of HEK293 cells in DMEM/FBS to arrive at a final concentration of 200,000 cells/mL, and 100 μL/well was added to a 96-well plate that was incubated overnight at 37 °C and 5% CO2. The following day, the medium was removed via aspiration and replaced with 85 μL of Opti-MEM without phenol red. A total of 5 μL per well of 20× NanoBRET Tracer K10 (Promega) at 10 μM for CSNK2A1 or 5 μM for CSNK2A2 in Tracer Dilution Buffer (Promega N291B) was added to all wells, except the “no tracer” control wells. Test compounds (10 mM in DMSO) were diluted 100× in Opti-MEM media to prepare stock solutions and evaluated at 11 concentrations. A total of 10 μL per well of the 10-fold test compound stock solutions (final assay concentration of 0.1% DMSO) were added. […] The plates were read within 30 min on a GloMax Discover luminometer (Promega) equipped with a 450 nm BP filter (donor) and 600 nm LP filter (acceptor) using 0.3 s of integration time. […]
(In general: In BRET a luciferase serves as donor, and the signal depends on an acceptor being close.)

Series [2] in a line: Liver microsomal stability, mouse. Type of series: in vitro ADME. The following applies: male, CD-1, pH 7.4, mouse liver microsomes, five time points over 1 h, read-out: MLM CLint. The method, then:
Compounds 1 ([…] DMSO stock solutions) were diluted to 2.5 mM with DMSO and again to 0.5 mM with MeCN to give a final solution containing a 0.5 mM compound in 1:4 DMSO/MeCN. Liver microsomes from male CD-1 mice were sourced from Xenotech (Kansas City, KS, USA). A reaction plate was prepared by adding 691.25 μL and prewarmed (37 °C) microsomal solution (0.63 mg/mL protein and 1.3 mM EDTA in potassium phosphate buffer made by mixing ~250 mL of 100 mM K2HPO4 with ~65mL of KH2PO4 until the buffer reaches a pH of 7.4) to an empty well of a 96-well plate and maintained at 37 °C. […] The stability of the compound was calculated as the percentage of the unchanged parent remaining at T = 30 min relative to the peak area at T = 0 min.
To determine CLint, aliquots of 50 μL were taken from the reaction solution at 0, 15, 30, 45, and 60 min. […] Peak areas were determined from extracted ion chromatograms and the slope value, k, was determined by linear regression of the natural logarithm of the remaining percentage of the parent drug vs. incubation time curve. The intrinsic clearance (CLint in μL/min/mg) was calculated using the relationship CLint = kV/N where V is the incubation volume and N is the amount of protein per well.
For orientation: Liver microsomes are vesicles of endoplasmic reticulum, rich in cytochrome P450 enzymes.

T1 sequence (P68400 whole entry): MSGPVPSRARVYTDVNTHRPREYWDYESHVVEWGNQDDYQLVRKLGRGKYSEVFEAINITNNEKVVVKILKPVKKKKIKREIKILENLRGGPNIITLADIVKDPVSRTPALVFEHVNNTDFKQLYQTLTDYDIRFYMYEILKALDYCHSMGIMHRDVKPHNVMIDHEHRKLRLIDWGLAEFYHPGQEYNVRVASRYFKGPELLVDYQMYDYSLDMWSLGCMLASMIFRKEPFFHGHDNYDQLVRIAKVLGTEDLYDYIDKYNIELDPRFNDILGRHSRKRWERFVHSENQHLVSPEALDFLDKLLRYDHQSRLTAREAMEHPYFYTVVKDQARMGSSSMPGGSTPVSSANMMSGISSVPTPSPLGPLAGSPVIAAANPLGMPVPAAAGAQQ

With `CCC(=O)Nc1cc(Nc2cc(NC3CC3)n3ncc(C#N)c3n2)c(F)cc1N1CCC[C@H](NC)C1` [Compound 2, (S)-N-(5-((3-cyano-7-(cyclopropylamino)pyrazolo[1,5-a]pyrimidin-5-yl)amino)-4-fluoro-2-(3-(methylamino)piperidin-1-yl)phenyl)propionamide], in series [1], the IC50 is 7.94 nM. Also, in series [2], the CLint scaled at 5 μM was 48.5 mL/min/kg.
